Data from patent US20070015822A1, “Methods for selectively treating COX-2 mediated disorders by administering gamma-tocopherol” (priority 2005, published 2007).
Read-outs that look alike come from different tables or passages of the source.

What was measured:
Type in all cases: in vivo, dog
COX-1 = molecular target: T1, COX-1 (Canis lupus familiaris, UniProt Q8HZR1); experiment: COX-1 IC50 determination in dogs; conditions: six dogs; γ-tocopherol tested as tocopherol composition comprising 66.6% gamma-tocopherol
T1 construct: from tissue
T1 sequence (Q8HZR1 28-603): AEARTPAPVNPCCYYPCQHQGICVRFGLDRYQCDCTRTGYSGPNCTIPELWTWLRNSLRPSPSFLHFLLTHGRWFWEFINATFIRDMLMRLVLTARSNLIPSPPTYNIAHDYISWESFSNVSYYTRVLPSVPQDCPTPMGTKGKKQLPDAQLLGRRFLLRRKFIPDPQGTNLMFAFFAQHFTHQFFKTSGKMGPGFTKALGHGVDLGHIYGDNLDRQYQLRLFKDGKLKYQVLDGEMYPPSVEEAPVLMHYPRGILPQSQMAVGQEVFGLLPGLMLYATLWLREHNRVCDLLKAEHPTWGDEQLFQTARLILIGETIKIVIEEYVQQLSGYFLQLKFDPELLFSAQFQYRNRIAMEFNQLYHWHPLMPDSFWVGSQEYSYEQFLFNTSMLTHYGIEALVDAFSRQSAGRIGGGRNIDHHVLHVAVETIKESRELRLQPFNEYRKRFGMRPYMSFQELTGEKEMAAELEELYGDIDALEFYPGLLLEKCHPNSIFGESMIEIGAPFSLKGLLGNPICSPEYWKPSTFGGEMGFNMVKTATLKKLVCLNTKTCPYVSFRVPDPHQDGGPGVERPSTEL

COX-2 = molecular target: T2, COX-2 (Canis lupus familiaris, UniProt Q8SPQ9); experiment: COX-2 IC50 determination in dogs; design: from tissue; conditions: for COX-1:COX-2: ratio of COX-1 IC50 to COX-2 IC50 (selectivity)
T2 sequence (Q8SPQ9 18-604): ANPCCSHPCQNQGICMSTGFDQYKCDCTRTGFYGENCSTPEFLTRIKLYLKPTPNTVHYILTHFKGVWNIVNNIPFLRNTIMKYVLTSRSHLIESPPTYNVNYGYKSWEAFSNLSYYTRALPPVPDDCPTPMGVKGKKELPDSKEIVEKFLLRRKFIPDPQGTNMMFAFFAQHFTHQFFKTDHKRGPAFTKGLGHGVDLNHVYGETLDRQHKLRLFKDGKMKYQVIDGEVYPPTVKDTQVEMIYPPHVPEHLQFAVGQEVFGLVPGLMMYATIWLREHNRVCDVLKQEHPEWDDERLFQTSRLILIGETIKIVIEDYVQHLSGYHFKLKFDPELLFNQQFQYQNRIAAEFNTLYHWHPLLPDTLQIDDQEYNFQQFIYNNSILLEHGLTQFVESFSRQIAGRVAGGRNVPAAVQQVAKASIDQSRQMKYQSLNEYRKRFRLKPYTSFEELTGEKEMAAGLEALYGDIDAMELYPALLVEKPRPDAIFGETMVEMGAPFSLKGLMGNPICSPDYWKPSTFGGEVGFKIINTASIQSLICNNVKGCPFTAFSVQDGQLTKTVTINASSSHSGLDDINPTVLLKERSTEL

urate-induced lameness = experiment: crystal urate-induced lameness model in dogs; conditions: 10 or 100 mg/kg body weight, 66.4% w/w or 90.9% w/w gamma-tocopherol
Procedure: A study was conducted to evaluate the effectiveness of the inventive formulations using the crystal urate-induced lameness model dogs. Formulations according to the invention and comprising 66.4% w/w or 90.9% w/w gamma-tocopherol and at 10 and 100 mg/kg body weight were administered to the dogs.

[1] = six dogs, γ-tocopherol tested as tocopherol composition comprising 66.6% gamma-tocopherol, read-out: COX-2 IC50

IC50 (COX-2; [1]) [µM]	COX-1 IC50 (COX-1)	SMILES	IC50 (COX-1) [µM]	IC50 (COX-2) [µM]	COX-1:COX-2 (COX-2)	degree of force upon the urate-treated joints tolerated (urate-induced lameness; FIGS. 3-4)	degree of lameness (urate-induced) (urate-induced lameness; after 8 hours, FIGS. 1-2)
–	–	CC(C(=O)O)c1ccc2c(c1)[nH]c1ccc(Cl)cc12 (stereo not shown) [Carprofen]	68.6	10	7	–	–
0.31	–	CC1(C)OC(=O)C(OCC2CC2)=C1c1ccc(S(C)(=O)=O)cc1 [Firocoxib]	119	–	384	–	–
27.8	No activity	Cc1c(O)cc2c(c1C)O[C@](C)(CCC[C@H](C)CCC[C@H](C)CCCC(C)C)CC2 [γ-Tocopherol, 3,4-dihydro-2,7,8-trimethyl-2-(4,8,12-trimethyltridecyl)-2H-1-benzyopyran-6-ol]	–	–	–	increased	Improvement in the degree of lameness
